According to US20170190671A1, “BIS(ARYL)CATECHOL DERIVATIVES AS HERBICIDES” (E I DU PONT DE NEMOURS AND COMPANY, priority 2014, published 2017):

Experiments:
Assay in all cases: Test D postemergence
Assay type in all cases: in vivo
Settings in all cases: scale 0 to 100
[1] = test system: deadnettle (henbit deadnettle, Lamium amplexicaule)
Source text: (§1) Seeds of plant species selected from bluegrass (annual bluegrass, Poa annua), blackgrass (Alopecurus myosuroides), canarygrass (Phalaris minor), chickweed (common chickweed, Stellaria media), cutleaf geranium (Geranium dissectum), galium (catchweed bedstraw, Galium aparine), downy bromegrass (Bromus tectorum), field poppy (Papaver rhoeas), field violet (Viola arvensis), green foxtail (Setaria viridis), deadnettle (henbit deadnettle, Lamium amplexicaule), Italian ryegrass (Lolium multiflorum), kochia (Kochia scoparia), lambsquarters (Chenopodium album), oilseed rape (Brassica napus), pigweed (Amaranthus retroflexus), chamomile (scentless chamomile, Matricaria inodora), Russian thistle (Salsola kali), speedwell (bird's-eye speedwell, Veronica persica), spring barley (Hordeum vulgare), spring wheat (Triticum aestivum), wild buckwheat (Polygonum convolvulus), wild mustard (Sinapis arvensis), wild oat (Avenafatua), wild radish (Raphanus raphanistrum), windgrass (Apera spica-venti), winter barley (Hordeum vulgare), and winter wheat (Triticum aestivum) were planted into a silt loam soil and treated preemergence with test chemicals formulated in a non-phytotoxic solvent mixture which included a surfactant.
(§2) At the same time, these species were planted in pots containing Redi-Earth® planting medium (Scotts Company, 14111 Scottslawn Road, Marysville, Ohio 43041) comprising spaghnum peat moss, vermiculite, wetting agent and starter nutrients and treated with postemergence applications of the test chemicals formulated in the same manner. Plants ranged in height from 2 to 18 cm (1- to 4-leaf stage). Treated plants and controls were maintained in a controlled growth environment for 14 to 21 days after which time all species were compared to controls and visually evaluated. Plant response ratings, summarized in Table D, are based on a scale of 0 to 100 where 0 is no effect and 100 is complete control. A dash (-) response means no test result.

[2] = test system: pigweed (Amaranthus retroflexus)
Source text: as §1, §2

[3] = test system: green foxtail (Setaria viridis)
Source text: as §1, §2

[4] = test system: windgrass (Apera spica-venti)
Source text: as §1, §2

[5] = test system: wild buckwheat (Polygonum convolvulus)
Source text: as §1, §2

[6] = test system: spring wheat (Triticum aestivum)
Source text: as §1, §2

[7] = test system: canarygrass (Phalaris minor)
Source text: as §1, §2

[8] = test system: blackgrass (Alopecurus myosuroides)
Source text: as §1, §2

[9] = test system: galium (catchweed bedstraw, Galium aparine)
Source text: as §1, §2

[10] = test system: field violet (Viola arvensis)
Source text: as §1, §2

[11] = test system: chickweed (common chickweed, Stellaria media)
Source text: as §1, §2

[12] = test system: winter barley (Hordeum vulgare)
Source text: as §1, §2

[13] = test system: lambsquarters (Chenopodium album)
Source text: as §1, §2

[14] = test system: downy bromegrass (Bromus tectorum)
Source text: as §1, §2

[15] = test system: Italian ryegrass (Lolium multiflorum)
Source text: as §1, §2

[16] = test system: bluegrass (annual bluegrass, Poa annua)
Source text: as §1, §2

SMILES: Fc1cnc(Oc2c(Br)cccc2Oc2ncc(Cl)cn2)nc1 [Compound 22]
- Plant response rating, Deadnettle ([1]; 16 g ai/ha): 50
- Plant response rating, Deadnettle ([1]; 31 g ai/ha): 50
- Plant response rating, Deadnettle ([1]; 62 g ai/ha): 65
- Plant response rating, Deadnettle ([1]; 125 g ai/ha): 90
- Plant response rating, Pigweed ([2]; 16 g ai/ha): 75
- Plant response rating, Pigweed ([2]; 31 g ai/ha): 80
- Plant response rating, Pigweed ([2]; 62 g ai/ha): 75
- Plant response rating, Pigweed ([2]; 125 g ai/ha): 95
- Plant response rating, Foxtail, Green ([3]; 16 g ai/ha): 10
- Plant response rating, Foxtail, Green ([3]; 31 g ai/ha): 15
- Plant response rating, Foxtail, Green ([3]; 62 g ai/ha): 25
- Plant response rating, Foxtail, Green ([3]; 125 g ai/ha): 30
- Plant response rating, Windgrass ([4]; 16 g ai/ha): 5
- Plant response rating, Windgrass ([4]; 31 g ai/ha): 10
- Plant response rating, Windgrass ([4]; 62 g ai/ha): 25
- Plant response rating, Windgrass ([4]; 125 g ai/ha): 35
- Plant response rating, Buckwheat, Wild ([5]; 16 g ai/ha): 55
- Plant response rating, Buckwheat, Wild ([5]; 31 g ai/ha): 65
- Plant response rating, Buckwheat, Wild ([5]; 62 g ai/ha): 70
- Plant response rating, Buckwheat, Wild ([5]; 125 g ai/ha): 80
- Plant response rating, Wheat, Spring ([6]; 16 g ai/ha): 5
- Plant response rating, Wheat, Spring ([6]; 31 g ai/ha): 5
- Plant response rating, Wheat, Spring ([6]; 62 g ai/ha): 10
- Plant response rating, Wheat, Spring ([6]; 125 g ai/ha): 15
- Plant response rating, Canarygrass ([7]; 16 g ai/ha): 10
- Plant response rating, Canarygrass ([7]; 31 g ai/ha): 10
- Plant response rating, Canarygrass ([7]; 62 g ai/ha): 20
- Plant response rating, Canarygrass ([7]; 125 g ai/ha): 25
- Plant response rating, Blackgrass ([8]; 16 g ai/ha): 20
- Plant response rating, Blackgrass ([8]; 31 g ai/ha): 30
- Plant response rating, Blackgrass ([8]; 62 g ai/ha): 35
- Plant response rating, Blackgrass ([8]; 125 g ai/ha): 40
- Plant response rating, Galium ([9]; 16 g ai/ha): 70
- Plant response rating, Galium ([9]; 31 g ai/ha): 60
- Plant response rating, Galium ([9]; 62 g ai/ha): 75
- Plant response rating, Galium ([9]; 125 g ai/ha): 85
- Plant response rating, Field Violet ([10]; 16 g ai/ha): 25
- Plant response rating, Field Violet ([10]; 31 g ai/ha): 40
- Plant response rating, Field Violet ([10]; 62 g ai/ha): 70
- Plant response rating, Field Violet ([10]; 125 g ai/ha): 75
- Plant response rating, Chickweed ([11]; 16 g ai/ha): 30
- Plant response rating, Chickweed ([11]; 31 g ai/ha): 75
- Plant response rating, Chickweed ([11]; 62 g ai/ha): 75
- Plant response rating, Chickweed ([11]; 125 g ai/ha): 75
- Plant response rating, Barley, Winter ([12]; 16 g ai/ha): 5
- Plant response rating, Barley, Winter ([12]; 31 g ai/ha): 10
- Plant response rating, Barley, Winter ([12]; 62 g ai/ha): 10
- Plant response rating, Barley, Winter ([12]; 125 g ai/ha): 15
- Plant response rating, Lambsquarters ([13]; 16 g ai/ha): 50
- Plant response rating, Lambsquarters ([13]; 31 g ai/ha): 40
- Plant response rating, Lambsquarters ([13]; 62 g ai/ha): 75
- Plant response rating, Lambsquarters ([13]; 125 g ai/ha): 70
- Plant response rating, Bromegrass, Downy ([14]; 16 g ai/ha): 5
- Plant response rating, Bromegrass, Downy ([14]; 31 g ai/ha): 10
- Plant response rating, Bromegrass, Downy ([14]; 62 g ai/ha): 20
- Plant response rating, Bromegrass, Downy ([14]; 125 g ai/ha): 25
- Plant response rating, Ryegrass, Italian ([15]; 16 g ai/ha): 15
- Plant response rating, Ryegrass, Italian ([15]; 31 g ai/ha): 20
- Plant response rating, Ryegrass, Italian ([15]; 62 g ai/ha): 25
- Plant response rating, Ryegrass, Italian ([15]; 125 g ai/ha): 35
- Plant response rating, Bluegrass ([16]; 16 g ai/ha): 0
- Plant response rating, Bluegrass ([16]; 31 g ai/ha): 5
- Plant response rating, Bluegrass ([16]; 62 g ai/ha): 15
- Plant response rating, Bluegrass ([16]; 125 g ai/ha): 40
